Assay results reported in paper PMC6002064, “Validated UPLC-MS/MS method for the quantification of dasatinib in plasma: Application to pharmacokinetic interaction studies with nutraceuticals in Wistar rats” (PLoS ONE, 2018).

Experiments:
[1] = parameters: method as in PMID 28640225; conditions: rats; cited from earlier work
[2] = Stability of DAS in rat plasma QC samples; type: in vitro ADME
Experimental: QC samples spiked at two concentration levels of DAS, low (3 ng/mL) and high (450 ng/mL), were analyzed (n = 6) in order to assess the drug stability in plasma. Stability testing were performed by exposing the QC plasma samples to different conditions, namely auto-sampler stability (extracted samples left in the auto-sampler at 10°C for 56 h before injection), short-term (bench-top) stability (samples left at room temperature (25 °C) for 6 h), and long-term stability (samples left at -30°C for 30 days). Moreover, freeze-thaw stability was assessed as follows, plasma samples were frozen at around -30°C and then thawed at room temperature for three cycles. For each sample, DAS concentrations were related to the nominal concentrations to calculate the % recovery.

[3] = Stability of DAS in rat plasma QC samples; type: in vitro ADME; conditions: DAS solutions, 4°C, n = 6, read-out: Mean recovery (%) ±RSD, refrigerator stability
[4] = Pharmacokinetic interaction study of oral DAS with nutraceuticals in acetic acid-induced UC Wistar rats (UPLC-MS/MS of plasma); type: in vivo; conditions: DAS 25 mg/kg oral
Experimental: Calibration standards, QC samples, as well as blank plasma samples were centrifugated at 6000 rpm for 5 min. Following the separation of the methanolic supernatants, the residues of individual samples were separately washed with 0.5 mL volumes of methanol. The combined supernatant and washing of each sample were cleaned-up by passing onto STRATA® C 18-E (200 mg, 3 mL) SPE cartridges, previously preconditioned with 3.0 mL methanol followed by 3.0 mL ultrapure water. The retained drugs were eluted from each sample using separate volumes of 0.5 mL methanol. Following the evaporation of the eluted methanolic solutions to dryness under nitrogen, the residue was reconstituted in 0.5 mL acetonitrile. Finally, UPLC–MS/MS analysis of the reconstituted samples was performed by injecting 5 μL volumes of each sample under the operating conditions.
Wistar healthy male rats weighing 250 ± 30 g were provided by the animal house, Women Student-Medical studies & Sciences Sections, College of Pharmacy, King Saud University, Riyadh, Saudi Arabia. The rats were placed in cages kept in a well-ventilated room and subjected to a regular 12 h day–night cycle at a relative humidity of 40–60% and average temperature of 24–27°C. All the rats could access the water freely while diet was prohibited for 12 h before drug administration. The rats were acclimatized for 7 days to laboratory conditions before conducting the experiment. Seven groups of five rats each were involved in the study. For all rats, UC was induced by oral daily administration of 1 mL volumes of 5% glacial acetic acid in water for three successive days. DAS suspension was prepared by triturating 125 mg of DAS with 5 mL aqueous methyl cellulose (0.5%, w/v) to prepare DAS suspension of 25 mg/mL, given to all groups with the exception of group V where olive oil was used for the suspension preparation. Curcumin preparations (50 mg/mL) were prepared by suspending the content of one capsule of either Curcumin 95 500 mg or Super Bio-Curcumin 400 mg in 10 mL or 8 mL volumes of water, respectively. By analogy, a suspension of 50 mg/mL olive leaf extract was prepared by suspending the content of one capsule into 10 mL water. However, for cocoa preparations, 450 mg cocoa extract/ 5 mL, aqueous suspensions of either CocoaVia® capsules or CocoaVia® unsweetened dark chocolate powder were prepared by suspending the content of one capsule or 2 g powder, respectively in water. Separate volumes (0.25 mL) of DAS suspension were orally administered to all treated animals using a gavage needle so that all rats received DAS dose of 25 mg/kg. For the purpose of comparison, rats of group I were only treated with DAS. Rats of groups II and III, curcumin groups, were first separately given an oral dose of […] of either Super Bio-Curcumin, curcumin I (rat group II) or Curcumin 95, curcumin II (rat group III). Then 30 min following curcumin administration, DAS suspension was given to the rats in a dose of 25 mg/kg. Rats of groups IV and V, the olive oil groups, were administered olive oil as follows; rats of group IV were separately given an oral dose of olive leaf extract, olive oil I, 50 mg/kg 30 min prior to DAS administration (25 mg/kg), while rats of groups V were separately given an oral dose of DAS suspended in olive oil, olive oil II (25 mg/kg). Finally, rats of groups VI and VII, cocoa groups, were initially given an oral dose of CocoaVia® capsules, cocoa I, 90 mg/kg (rat group VI), or CocoaVia® unsweetened dark chocolate, cocoa II, 90 mg/kg (rat group VII) 30 min before DAS dosing of 25 mg/kg. For each group, volumes of 0.3 mL blood samples were withdrawn from the retro-orbital sinus of each rat into heparinized tubes. Blood samples were collected at different time intervals; 0 (prior to dosing), 0.5, 1, 2, 3, 5, 6, and 24 h following DAS administration. All collected blood samples were centrifuged immediately at 4,500 rpm (30 min, 4°C).

[5] = Stability of DAS solutions; type: physicochemical
[6] = male, Wistar, rat, DAS in plasma, n = 5, mean±SD

## CC(=O)N1CCN(c2ccc(OCC3COC(Cn4ccnc4)(c4ccc(Cl)cc4Cl)O3)cc2)CC1 (stereo not shown) [ketoconazole]
[1]
  effect of co-administration on the PK of sorafenib: did not cause a significant effect

## Cc1nc(Nc2ncc(C(=O)Nc3c(C)cccc3Cl)s2)cc(N2CCN(CCO)CC2)n1 [DAS, Dasatinib]
[2]; extracted rat plasma QC samples, 10°C, 56 h, extracted samples, 3 ng/mL in rat plasma, n = 6, read-out: Mean recovery (%) ±RSD, auto-sampler stability
  recovery at 56 h, 3 ng/mL: 97.3%
[2]; extracted rat plasma QC samples, 10°C, 56 h, extracted samples, 450 ng/mL in rat plasma, n = 6, read-out: Mean recovery (%) ±RSD, auto-sampler stability
  recovery at 56 h, 450 ng/mL: 98.5%
[2]; rat plasma QC samples, 25°C, 6 h, 3 ng/mL in rat plasma, n = 6, read-out: Mean recovery (%) ±RSD, short-term stability
  recovery at 6 h, 3 ng/mL: 96.1%
[2]; rat plasma QC samples, 25°C, 6 h, 450 ng/mL in rat plasma, n = 6, read-out: Mean recovery (%) ±RSD, short-term stability
  recovery at 6 h, 450 ng/mL: 97.2%
[2]; rat plasma QC samples, -30°C, 3 cycles, 3 ng/mL in rat plasma, n = 6, read-out: Mean recovery (%) ±RSD, freeze-thaw stability
  recovery at 3 freeze-thaw cycles, 3 ng/mL: 101%
[2]; rat plasma QC samples, -30°C, 3 cycles, 450 ng/mL in rat plasma, n = 6, read-out: Mean recovery (%) ±RSD, freeze-thaw stability
  recovery at 3 freeze-thaw cycles, 450 ng/mL: 99.5%
[2]; rat plasma QC samples, -30°C, 30 days, 3 ng/mL in rat plasma, n = 6, read-out: Mean recovery (%) ±RSD, long-term stability
  recovery at 30 days, 3 ng/mL: 97.9%
[2]; rat plasma QC samples, -30°C, 30 days, 450 ng/mL in rat plasma, n = 6, read-out: Mean recovery (%) ±RSD, long-term stability
  recovery at 30 days, 450 ng/mL: 97.3%
[2]; rat, rat plasma QC samples, all handling and storage conditions of Table 6, 3 and 450 ng/mL in plasma, read-out: recovery values in stability studies
  recovery: ≥ 96.1%
[3]; 3 ng/mL
  recovery at 3 months, 3 ng/mL: 99.9%
[3]; 450 ng/mL
  recovery at 3 months, 450 ng/mL: 98.1%
[4]; DAS, n = 5, mean±SD
  CL: 153 ± 66.8 mL/min/kg
  Vd: 238.12 ± 44.22 L/kg
[4]; [6]
  AUC(0-inf): 2660 ± 596 ng·h/mL
  AUC(0-t): 1640 ± 681 ng·h/mL
  Tmax: 0.51 ± 0.08 h
[4]; male, Wistar, rat, DAS in plasma, n = 5, mean±SD, nutraceutical given orally 30 min before DAS (olive oil II: DAS suspended in it)
  Cmax: 230 ± 31 ng/mL
[4]; male, Wistar, rat, DAS in plasma, n = 5, mean±SD, read-out: MRT0-t
  MRT last: 8.6 ± 0.88 h
[4]; male, Wistar, rat, DAS in plasma, n = 5, mean±SD, read-out: MRT0-∞
  MRT inf: 24.4 ± 4.29 h
[4]; male, Wistar, rat, DAS in plasma, n = 5, mean±SD, read-out: t½ (converted)
  half-life: 17.9 ± 2.15 h
[4]; male, Wistar, rat, plasma, time 0 h (prior to dosing), read-out: Conc*10 (ng/mL plasma), average DAS plasma concentration
  concentration at 0 h: 28.6 ng/mL
[4]; male, Wistar, rat, plasma, time 0.5 h, read-out: Conc*10 (ng/mL plasma), average DAS plasma concentration
  concentration at 0.5 h: 236 ng/mL
[4]; male, Wistar, rat, plasma, time 1 h, read-out: Conc*10 (ng/mL plasma), average DAS plasma concentration
  concentration at 1 h: 153 ng/mL
[4]; male, Wistar, rat, plasma, time 2 h, read-out: Conc*10 (ng/mL plasma), average DAS plasma concentration
  concentration at 2 h: 117 ng/mL
[4]; male, Wistar, rat, plasma, time 3 h, read-out: Conc*10 (ng/mL plasma), average DAS plasma concentration
  concentration at 3 h: 99.7 ng/mL
[4]; male, Wistar, rat, plasma, time 5 h, read-out: Conc*10 (ng/mL plasma), average DAS plasma concentration
  concentration at 5 h: 79.1 ng/mL
[4]; male, Wistar, rat, plasma, time 6 h, read-out: Conc*10 (ng/mL plasma), average DAS plasma concentration
  concentration at 6 h: 69.6 ng/mL
[4]; male, Wistar, rat, plasma, time 24 h, read-out: Conc*10 (ng/mL plasma), average DAS plasma concentration
  concentration at 24 h: 39.8 ng/mL
[5]; room temperature for 6 h
  stability of DAS solutions: stable
[5]; up to 3 months at the refrigerator (4°C)
  stability of DAS solutions: stable
